Like-named read-outs stand apart in the source and are kept apart here.

The source of these data is PMC6478789, “A chemical toolbox for the study of bromodomains and epigenetic signaling” (Nature Communications, 2019).

The target of one experiment is SMARCA2 (Homo sapiens, UniProt P51531). Description: BROMOscan ligand-binding assay.
The target of another experiment is SMARCA4 (Homo sapiens, UniProt P51532). Description: BROMOscan ligand-binding assay.
Another experiment deals with FXR1 (Homo sapiens, UniProt P51114). Kind of experiment: Temperature shift assay (non-BRD reader domains). It is filed as binding. The conditions noted are these: 10µM compound. The method, then: (§1) Temperature shift assays have been described by Fedorov et al.[46]. Recombinant protein domains (bromodomain or kinases) at a concentration of 2 μM in 10 mM HEPES, pH 7.5, and 500 mM NaCl were mixed with 10 μM of chemical probes. Temperature-dependent protein unfolding profiles were measured using a Real-Time PCR Mx3005p machine (Stratagene).
(§2) Wu et al., Supplementary figures and tables 14
(§3) Supplementary Table 3: Selectivity screening data (non-BRD reader domains):
(§4) Temperature shift assay data of BRD probes screened against a diver se panel of methyl-lysine
(§5) reader domains. Compounds were screened a concentration of 10 µM. Shown are temperature

In the next experiment the target is T1, SND1 (Homo sapiens, UniProt Q7KZF4).
T1 sequence (Q7KZF4 729-787 limits assumed): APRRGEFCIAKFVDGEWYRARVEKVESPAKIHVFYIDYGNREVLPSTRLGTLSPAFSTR
Kind of experiment: Temperature shift assay (non-BRD reader domains). It is filed as binding. The note with it: 10µM compound. The method, then: as §1, §2, §3, §4, §5

A further experiment concerns the target T2, PRMT9 (Homo sapiens, UniProt Q6P2P2).
T2 construct: purchased DiscoverX BROMOscan (bromodomains); SGC in-house methyltransferase panel
T2 sequence (Q6P2P2 1-845): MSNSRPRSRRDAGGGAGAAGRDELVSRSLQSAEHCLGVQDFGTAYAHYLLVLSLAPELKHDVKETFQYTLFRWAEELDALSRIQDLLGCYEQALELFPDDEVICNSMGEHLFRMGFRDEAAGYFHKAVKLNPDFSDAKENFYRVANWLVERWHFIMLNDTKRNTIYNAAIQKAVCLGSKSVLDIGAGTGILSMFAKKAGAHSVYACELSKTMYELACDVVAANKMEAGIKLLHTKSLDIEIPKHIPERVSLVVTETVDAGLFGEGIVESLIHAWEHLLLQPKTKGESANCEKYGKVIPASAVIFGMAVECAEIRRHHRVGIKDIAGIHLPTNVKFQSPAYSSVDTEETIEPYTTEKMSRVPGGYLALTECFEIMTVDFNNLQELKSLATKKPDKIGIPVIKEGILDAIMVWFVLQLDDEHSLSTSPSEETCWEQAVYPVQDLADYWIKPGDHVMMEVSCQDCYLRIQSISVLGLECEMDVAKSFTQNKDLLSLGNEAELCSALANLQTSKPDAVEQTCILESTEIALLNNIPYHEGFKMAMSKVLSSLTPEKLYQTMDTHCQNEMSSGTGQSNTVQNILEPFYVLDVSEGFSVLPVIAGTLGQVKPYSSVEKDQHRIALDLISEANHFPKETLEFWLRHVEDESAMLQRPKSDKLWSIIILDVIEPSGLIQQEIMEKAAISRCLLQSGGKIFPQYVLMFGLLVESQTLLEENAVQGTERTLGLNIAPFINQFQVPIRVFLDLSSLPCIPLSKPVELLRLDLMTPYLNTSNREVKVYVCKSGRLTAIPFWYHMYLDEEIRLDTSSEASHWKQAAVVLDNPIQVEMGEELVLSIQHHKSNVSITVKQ
Description: Methyl transferase scintillation proximity assay. It is filed as biochemical. The note with it: average of two measurements; for inhibition at 10 µM: read-out: MTases Inhibition (%). The method, then: (§6) Assays measuring lysine and arginine methyl transferase activity have been described in Scheer et al.. A radioactivity-based scintillation proximity assay was used to monitor incorporation of a tritium-labeled methyl group into the biotinylated substrate of the methyl transferase. A 10-μl reaction containing ^3H-SAM and substrate at concentrations close to the apparent Km values for each enzyme was prepared. The reactions were quenched with 10 μl of 7.5 M guanidine hydrochloride; 180 μl of 20 mM Tris buffer (pH 8.0) were added; and the mixture was transferred to a 96-well FlashPlate and incubated for 1 h. The counts per minute (CPM) was measured on a TopCount plate reader. The CPM in the absence of compound or enzyme was defined as 100% activity and background (0%), respectively, for each dataset.
A general note: In a scintillation proximity assay essentially only radioactivity close to the scintillant gives light.

Another experiment concerns the target T3, DNMT3B/3L (Homo sapiens, UniProt Q9UBC3).
T3 construct: purchased DiscoverX BROMOscan (bromodomains); SGC in-house methyltransferase panel
Kind of experiment: Methyl transferase scintillation proximity assay. The class given is biochemical. The note with it: average of two measurements; for inhibition at 10 µM: read-out: MTases Inhibition (%). The method, then: as §6

For another experiment, the target named is T4, PRC2-EZH1 (Homo sapiens, UniProt Q92800).
T4 construct: purchased DiscoverX BROMOscan (bromodomains); SGC in-house methyltransferase panel
Description: Methyl transferase scintillation proximity assay. It is filed as biochemical. The conditions noted are these: average of two measurements; for inhibition at 10 µM: read-out: MTases Inhibition (%). The protocol: as §6

The next experiment concerns the target T5, PRMT7 (Homo sapiens, UniProt Q9NVM4).
T5 construct: purchased DiscoverX BROMOscan (bromodomains); SGC in-house methyltransferase panel
T5 sequence (Q9NVM4 1-692): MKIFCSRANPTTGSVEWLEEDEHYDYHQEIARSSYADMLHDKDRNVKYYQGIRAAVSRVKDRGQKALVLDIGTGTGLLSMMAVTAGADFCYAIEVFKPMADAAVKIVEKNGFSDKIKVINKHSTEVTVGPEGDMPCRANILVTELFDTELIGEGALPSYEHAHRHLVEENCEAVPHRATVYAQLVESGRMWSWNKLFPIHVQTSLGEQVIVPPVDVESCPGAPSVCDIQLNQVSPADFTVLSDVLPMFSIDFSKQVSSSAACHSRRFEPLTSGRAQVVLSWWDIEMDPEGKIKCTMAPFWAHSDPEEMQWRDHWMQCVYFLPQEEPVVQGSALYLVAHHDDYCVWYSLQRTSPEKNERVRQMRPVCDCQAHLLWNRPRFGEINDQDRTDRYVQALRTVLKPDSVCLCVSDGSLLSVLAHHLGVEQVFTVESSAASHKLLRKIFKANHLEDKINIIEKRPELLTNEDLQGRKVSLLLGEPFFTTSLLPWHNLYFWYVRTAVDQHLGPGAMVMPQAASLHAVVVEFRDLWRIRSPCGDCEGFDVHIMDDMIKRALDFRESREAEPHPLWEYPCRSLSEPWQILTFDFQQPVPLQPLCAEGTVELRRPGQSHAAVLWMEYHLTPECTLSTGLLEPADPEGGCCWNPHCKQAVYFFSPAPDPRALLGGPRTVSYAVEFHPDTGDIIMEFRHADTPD
Description: Methyl transferase scintillation proximity assay. It is filed as biochemical. The conditions noted are these: average of two measurements; for inhibition at 10 µM: read-out: MTases Inhibition (%). The method, then: as §6

The mark [1] stands for this setting: KD (BROMOscan), sheet prints no unit (nM).

T4 sequence (Q92800 whole entry): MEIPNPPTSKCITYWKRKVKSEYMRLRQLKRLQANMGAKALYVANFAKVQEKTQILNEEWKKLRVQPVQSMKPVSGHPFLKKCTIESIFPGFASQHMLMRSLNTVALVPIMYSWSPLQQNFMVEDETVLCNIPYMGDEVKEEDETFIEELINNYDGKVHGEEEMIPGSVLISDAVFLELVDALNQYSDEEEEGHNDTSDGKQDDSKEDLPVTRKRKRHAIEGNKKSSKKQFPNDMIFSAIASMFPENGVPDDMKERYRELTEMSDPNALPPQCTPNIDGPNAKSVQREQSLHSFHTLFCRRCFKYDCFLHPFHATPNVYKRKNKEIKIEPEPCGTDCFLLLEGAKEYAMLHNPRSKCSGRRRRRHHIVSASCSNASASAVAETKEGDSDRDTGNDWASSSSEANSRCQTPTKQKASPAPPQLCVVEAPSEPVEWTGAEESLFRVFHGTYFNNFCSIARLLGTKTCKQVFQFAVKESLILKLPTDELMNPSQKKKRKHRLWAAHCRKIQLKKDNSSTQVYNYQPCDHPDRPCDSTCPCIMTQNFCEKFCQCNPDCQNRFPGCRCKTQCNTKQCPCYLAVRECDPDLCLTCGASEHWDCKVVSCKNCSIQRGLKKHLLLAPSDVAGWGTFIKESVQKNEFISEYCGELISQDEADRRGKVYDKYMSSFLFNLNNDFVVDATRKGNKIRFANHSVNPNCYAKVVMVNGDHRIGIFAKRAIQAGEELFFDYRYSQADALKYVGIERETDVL
T4 sequence (O75530 whole entry partner): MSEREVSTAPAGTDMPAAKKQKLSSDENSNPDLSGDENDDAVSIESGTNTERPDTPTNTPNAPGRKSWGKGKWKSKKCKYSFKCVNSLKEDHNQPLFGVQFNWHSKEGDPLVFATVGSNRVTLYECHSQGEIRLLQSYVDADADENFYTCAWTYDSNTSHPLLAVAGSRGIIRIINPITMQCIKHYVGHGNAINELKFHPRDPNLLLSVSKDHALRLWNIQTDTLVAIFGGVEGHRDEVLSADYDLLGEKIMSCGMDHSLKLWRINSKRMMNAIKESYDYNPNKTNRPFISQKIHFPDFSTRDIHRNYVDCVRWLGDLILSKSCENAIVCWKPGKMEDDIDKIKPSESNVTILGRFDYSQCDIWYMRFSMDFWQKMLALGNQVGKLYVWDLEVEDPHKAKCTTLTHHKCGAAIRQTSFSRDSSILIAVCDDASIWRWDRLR
T4 sequence (Q15022 whole entry partner): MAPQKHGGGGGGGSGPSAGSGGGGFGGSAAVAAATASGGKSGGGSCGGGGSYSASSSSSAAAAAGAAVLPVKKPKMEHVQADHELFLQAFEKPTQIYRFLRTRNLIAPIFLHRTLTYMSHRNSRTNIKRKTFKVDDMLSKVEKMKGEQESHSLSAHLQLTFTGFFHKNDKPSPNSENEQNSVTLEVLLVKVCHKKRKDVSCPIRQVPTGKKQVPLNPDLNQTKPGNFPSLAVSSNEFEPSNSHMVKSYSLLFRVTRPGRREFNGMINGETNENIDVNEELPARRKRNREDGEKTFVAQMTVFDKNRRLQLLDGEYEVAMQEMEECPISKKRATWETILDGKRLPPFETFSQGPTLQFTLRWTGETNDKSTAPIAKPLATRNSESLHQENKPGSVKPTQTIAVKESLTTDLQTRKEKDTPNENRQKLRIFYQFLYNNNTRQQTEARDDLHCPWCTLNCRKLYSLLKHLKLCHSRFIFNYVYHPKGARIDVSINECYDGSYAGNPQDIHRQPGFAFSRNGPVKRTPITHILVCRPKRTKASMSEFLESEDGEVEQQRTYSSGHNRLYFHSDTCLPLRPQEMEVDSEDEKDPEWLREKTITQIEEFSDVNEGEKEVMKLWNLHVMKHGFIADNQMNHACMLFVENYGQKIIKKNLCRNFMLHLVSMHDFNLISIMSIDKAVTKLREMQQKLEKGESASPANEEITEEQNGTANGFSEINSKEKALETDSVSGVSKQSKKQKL
Chain of SMARCA2 (P51531 1-1572 isoform P51531-2): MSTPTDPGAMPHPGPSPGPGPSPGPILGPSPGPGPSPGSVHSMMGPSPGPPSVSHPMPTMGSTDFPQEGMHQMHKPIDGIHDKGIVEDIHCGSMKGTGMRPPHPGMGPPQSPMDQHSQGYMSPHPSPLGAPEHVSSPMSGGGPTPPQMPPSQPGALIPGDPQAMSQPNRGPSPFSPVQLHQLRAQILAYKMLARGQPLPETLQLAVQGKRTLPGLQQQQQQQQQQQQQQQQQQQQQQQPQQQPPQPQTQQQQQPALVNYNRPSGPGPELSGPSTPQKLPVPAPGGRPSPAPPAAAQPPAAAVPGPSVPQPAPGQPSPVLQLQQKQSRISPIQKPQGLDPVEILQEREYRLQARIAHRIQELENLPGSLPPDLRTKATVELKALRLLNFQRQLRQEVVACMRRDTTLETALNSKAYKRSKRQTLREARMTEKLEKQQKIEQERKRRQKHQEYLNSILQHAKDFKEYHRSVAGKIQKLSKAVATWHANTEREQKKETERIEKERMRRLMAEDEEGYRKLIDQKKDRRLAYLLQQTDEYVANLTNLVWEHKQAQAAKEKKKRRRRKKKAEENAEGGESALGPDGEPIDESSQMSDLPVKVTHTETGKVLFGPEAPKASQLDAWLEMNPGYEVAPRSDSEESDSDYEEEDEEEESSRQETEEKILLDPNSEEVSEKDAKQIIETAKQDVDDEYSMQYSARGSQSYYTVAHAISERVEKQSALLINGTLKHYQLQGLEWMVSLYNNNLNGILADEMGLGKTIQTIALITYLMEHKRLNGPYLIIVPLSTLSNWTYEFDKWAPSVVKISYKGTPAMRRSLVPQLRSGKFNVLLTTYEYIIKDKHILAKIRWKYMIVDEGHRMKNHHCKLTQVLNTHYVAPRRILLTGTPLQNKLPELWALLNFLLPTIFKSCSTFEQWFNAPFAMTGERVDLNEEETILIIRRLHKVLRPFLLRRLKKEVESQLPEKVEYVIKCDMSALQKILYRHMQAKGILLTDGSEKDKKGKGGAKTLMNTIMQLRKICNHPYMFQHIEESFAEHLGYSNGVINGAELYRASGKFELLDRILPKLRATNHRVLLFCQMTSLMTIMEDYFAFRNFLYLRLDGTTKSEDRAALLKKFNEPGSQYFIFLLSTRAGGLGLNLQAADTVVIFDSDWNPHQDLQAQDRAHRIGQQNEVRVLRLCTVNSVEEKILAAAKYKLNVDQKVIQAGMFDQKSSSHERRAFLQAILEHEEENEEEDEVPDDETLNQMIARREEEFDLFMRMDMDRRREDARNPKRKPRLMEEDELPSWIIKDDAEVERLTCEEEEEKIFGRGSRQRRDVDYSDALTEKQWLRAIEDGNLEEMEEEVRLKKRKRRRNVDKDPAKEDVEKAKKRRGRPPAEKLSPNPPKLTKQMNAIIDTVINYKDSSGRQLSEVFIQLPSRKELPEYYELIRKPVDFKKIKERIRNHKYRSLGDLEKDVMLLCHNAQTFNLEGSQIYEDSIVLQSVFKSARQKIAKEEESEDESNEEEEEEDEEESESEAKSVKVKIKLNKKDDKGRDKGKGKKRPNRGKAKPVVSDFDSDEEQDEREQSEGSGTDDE
Chain of SMARCA4 (P51532 1453-1564 limits assumed): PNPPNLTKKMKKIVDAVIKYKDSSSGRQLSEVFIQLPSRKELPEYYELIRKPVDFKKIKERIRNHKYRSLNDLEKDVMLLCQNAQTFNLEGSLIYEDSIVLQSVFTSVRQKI
Chain of FXR1 (P51114 2-132 limits assumed, species assumed): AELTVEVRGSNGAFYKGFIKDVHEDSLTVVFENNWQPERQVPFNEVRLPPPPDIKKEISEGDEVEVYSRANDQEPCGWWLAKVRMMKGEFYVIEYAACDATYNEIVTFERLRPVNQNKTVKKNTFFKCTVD
Description for SMARCA2: (§7) BROMOscan is a binding assay based on the well-known KINOMEscan technology. This assay measures the binding of a DNA-tagged bromodomain to an immobilized BRD ligand. If an inhibitor is present, it will compete with the bromodomain binding to the immobilized ligand, resulting in reduction of a quantitative PCR (qPCR) signal in a dose-dependent manner.
Description for SMARCA4: as §7

For the compound `COc1ccc(CCc2nc3cc(-c4c(C)noc4C)ccc3n2C[C@H](C)N2CCOCC2)cc1Cl` [SGC-CBP30], the equilibrium dissociation constant (Kd) on SMARCA2 (setting [1]) is over 30000 nM; at SMARCA2 (KD, BROMOscan, SMARCA2), over 100000 nM.

As for `CCCOc1ccn2c(C(C)=O)cc(-c3ccccc3S(C)(=O)=O)c2c1` [GSK2801], the Kd on SMARCA2 (setting [1]) was over 30000 nM; at SMARCA2 (KD, BROMOscan Gene Symbol SMARCA2), over 100000 nM; on SMARCA4 (setting [1]), over 30000 nM; at SMARCA4 (KD, BROMOscan Gene Symbol SMARCA4), over 100000 nM.

With `Cc1nnc2c3ccccc3c(N[C@@H](C)[C@H](c3ccccc3)N(C)C)nn12` [L-Moses], the entries for the “Tm (C) 10µM, temperature shift” value on FXR1 and on SND1 were 0.3 Kelvin and -1.0 Kelvin, respectively. In addition, the inhibition at 10 µM at PRMT9 is 13%; at DNMT3B/3L, -1%; on PRC2-EZH1, 5%; on PRMT7, 8%.

On to `CCC(=O)N1CCOc2c(cc(-c3ccc(OC)c(OC)c3)cc2OCC2CCCN(C)C2)C1` (centres unmarked) [I-CBP112], for which the dissociation constant Kd on SMARCA2 (setting [1]) is over 30000 nM; at SMARCA2 (KD, SMARCA2) it was over 100000 nM; on SMARCA4 (setting [1]), over 30000 nM; at SMARCA4 (KD, SMARCA4), over 100000 nM. The “Tm (C) 10µM, temperature shift” value at FXR1 is reported as 0.9 Kelvin; on SND1 it was -0.7 Kelvin.

In the case of `CN(C)CCCOc1ccc(-c2cc(NCCCn3cccn3)nc(S(C)(=O)=O)n2)cc1` [TP-238], the results for the “Tm (C) 10µM, temperature shift” value on FXR1 and at SND1 were 0.4 Kelvin and -0.5 Kelvin, respectively. Further, the inhibition at 10 µM amounted to 7% on PRMT9, 0% at DNMT3B/3L, 6% at PRC2-EZH1 and 9% on PRMT7.

As for `O=C(O)c1ccccc1O` [Salicylic Acid], the Kd at SMARCA2 (KD, SMARCA2) was 250000 nM; on SMARCA4 (KD, SMARCA4) it was 320000 nM.

With `COc1cc2c(cc1NS(=O)(=O)c1ccc(Br)cc1C)n(C)c(=O)n2C` [OF-1], the Kd at SMARCA2 (SMARCA2) is over 50000 nM; on SMARCA2 (read-out: KD (BROMOscan), sheet prints no unit (nM)) it was over 30000 nM; at SMARCA4 (SMARCA4), 16000 nM.

For `Cc1c(NC(=O)c2cc(C(N)=O)nc3cc(F)ccc23)c(C(F)(F)F)nn1Cc1ccc(C(C)(C)C)cc1` [BAY-588], the entries for the “Tm (C) 10µM, temperature shift” value at FXR1 and at SND1 were -1.2 Kelvin and -1.0 Kelvin, respectively. Besides, the inhibition at 10 µM at PRMT9 is 3%; at DNMT3B/3L, -6%; at PRC2-EZH1, 3%; on PRMT7 it was 13%.

`COc1cc(C#N)ccc1S(=O)(=O)Nc1ccc2c(c1)cc(C)c(=O)n2C` [NI 57]: the dissociation constant Kd at SMARCA2 (SMARCA2) was over 50000 nM; at SMARCA4 (SMARCA4) it was 41000 nM.

`Cc1c(NC(=O)c2cc(C(N)=O)nc3cc(F)ccc23)c(C(F)(F)F)nn1Cc1ccc(C#N)cc1` [BAY-876]: the “Tm (C) 10µM, temperature shift” value at FXR1 is on record as 0.8 Kelvin; at SND1, -0.9 Kelvin. The inhibition at 10 µM was 12% on PRMT9, 1% on DNMT3B/3L, -4% on PRC2-EZH1 and 12% on PRMT7.

Consider `COc1ccccc1C(=O)Nc1cc2c(cc1N1CCNC[C@H]1C)n(C)c(=O)n2C` [GSK6853], for which the “MTases Inhibition (%)” value at PRMT9 (10µM) was 12%; on DNMT3B/3L (10µM) it was 8%; at PRC2-EZH1 (10µM), 1%; at PRMT7 (10µM), 11%.

Turning to `O=C(C=CN1[C@H]2CC[C@@H]1c1ncnc(NC3CC3)c1C2)c1ccccc1O` [PFI-3 D1], the Kd on SMARCA2 (BROMOscan, SMARCA2) was determined as 49 nM; at SMARCA4 (BROMOscan, SMARCA4), 46 nM.

Take `Cc1cc2c(cc1N1C(=O)c3cccc4c(CCCO)ccc(c34)C1=O)n(C)c(=O)n2C` [BAY-299]: the “Tm (C) 10µM, temperature shift” value on FXR1 came to 0.8 Kelvin.

`CO[C@H]1CNC[C@@H](OCC2CCC(F)(F)CC2)[C@@H]1Nc1ncc(-c2cncc(C)c2)c2cc(C)c(=O)[nH]c12` [GSK8814]: the “Tm (C) 10µM, temperature shift” value is 0.4 Kelvin at FXR1 and -0.5 Kelvin at SND1. Further, the inhibition at 10 µM was 3% on PRMT9, 18% at DNMT3B/3L, 1% on PRC2-EZH1 and 11% on PRMT7.

Turning to `COc1cc(Cl)c(C(=O)N[C@@H](CN[C@H]2CC[C@@H](N)CC2)Cc2ccc(C#N)cc2)cc1-c1ccc(CN[C@H](C)c2ccc(C)cc2)o1` [BAY-850], the entries for the “Tm (C) 10µM, temperature shift” value on FXR1 and at SND1 were -1.7 Kelvin and -1.6 Kelvin, respectively. Moreover, the inhibition at 10 µM at PRMT9 was 15%; at DNMT3B/3L, 28%; on PRC2-EZH1 it was 19%; at PRMT7 it was 3%.

At SMARCA2, `CCCS(=O)(=O)c1nc(NC2CC2)cc(-c2ccc3c(ccn3C3CC(C)(C)NC(C)(C)C3)c2)n1` [NVS-CECR2-1] came in with a Kd of over 30000 nM.

On to `CN1C[C@H](Nc2cnn(C)c(=O)c2Br)C[C@H](c2ccccc2)C1` [GSK4027], for which the “Tm (C) 10µM, temperature shift” value was 0.3 Kelvin at FXR1 and -1.0 Kelvin at SND1. The inhibition at 10 µM on PRMT9 is 8%; on DNMT3B/3L, 1%; at PRC2-EZH1, -1%; at PRMT7, 15%.

In the case of `Cc1cc(=O)n(C)c2cc(N3C(=O)CC[C@H](NS(=O)(=O)CC(C)C)[C@H]3c3ccc(Cl)cc3)ccc12` [LP-99], the Kd on SMARCA2 (BROMOscan, SMARCA2) is over 50000 nM; at SMARCA4 (BROMOscan, SMARCA4) it was over 50000 nM.

As usually defined, the Kd is the concentration at which binding is half-saturated. As a reminder, the inhibition is the drop in the measured response relative to a control, in per cent.
